Data published in PubChem BioAssay AID248 (DTP/NCI, 2004).
Toxic doses and inconclusive results are not listed. Cut-off read from the data, not from the text of the source: active = T/C of 150% or more; inactive = T/C below 125%.

System: L1210 leukemia ip in BDF1 mice, survival T/C
Assay: NCI In Vivo Anticancer Drug Screen. Data for tumor model L1210 Leukemia (intraperitoneal) in B6D2F1 (BDF1) mice
Conditions: higher = longer survival
Summary of the method: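 Ratio derived from survival: compound-dosed mice over vehicle-dosed mice, all bearing a transplantable tumor.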

Measured: T/C

COc1cc([C@@H]2c3cc4c(c(O)c3C[C@H]3COC(=O)[C@@H]32)OCO4)cc(OC)c1O
inactive: endpoint: mean survival time, dose: 0.06 mg/kg/injection, schedule: Q01DX Z (ip), vehicle: saline 100 % of control | endpoint: mean survival time, dose: 0.12 mg/kg/injection, schedule: Q01DX Z (ip), vehicle: saline 100 % of control | endpoint: mean survival time, dose: 0.2 mg/kg/injection, schedule: Q01DX001 (ip), vehicle: carboxymethylcellulose (CMC) 119 % of control | endpoint: mean survival time, dose: 0.25 mg/kg/injection, schedule: Q01DX Z (ip), vehicle: saline 100 % of control | endpoint: mean survival time, dose: 0.5 mg/kg/injection, schedule: Q01DX001 (ip), vehicle: carboxymethylcellulose (CMC) 107 % of control | endpoint: mean survival time, dose: 0.5 mg/kg/injection, schedule: Q01DX Z (ip), vehicle: saline 100 % of control | endpoint: mean survival time, dose: 1.0 mg/kg/injection, schedule: Q01DX001 (ip), vehicle: carboxymethylcellulose (CMC) 107 % of control | endpoint: mean survival time, dose: 2.0 mg/kg/injection, schedule: Q01DX001 (ip), vehicle: carboxymethylcellulose (CMC) 111 % of control | endpoint: mean survival time, dose: 3.6 mg/kg/injection, schedule: Q01DX001 (ip), vehicle: carboxymethylcellulose (CMC) 103 % of control | endpoint: mean survival time, dose: 4.0 mg/kg/injection, schedule: Q01DX001 (ip), vehicle: carboxymethylcellulose (CMC) 119 % of control | endpoint: mean survival time, dose: 5.3 mg/kg/injection, schedule: Q01DX001 (ip), vehicle: carboxymethylcellulose (CMC) 108 % of control | endpoint: mean survival time, dose: 8.0 mg/kg/injection, schedule: Q01DX001 (ip), vehicle: carboxymethylcellulose (CMC) 113 % of control | endpoint: median survival time, dose: 0.06 mg/kg/injection, schedule: Q01DX009 (ip), vehicle: Klucel (hydroxypropylcellulose) (HPC) 100 % of control | endpoint: median survival time, dose: 0.12 mg/kg/injection, schedule: Q01DX009 (ip), vehicle: Klucel (hydroxypropylcellulose) (HPC) 100 % of control | endpoint: median survival time, dose: 0.25 mg/kg/injection, schedule: Q01DX009 (ip), vehicle: Klucel (hydroxypropylcellulose) (HPC) 100 % of control | endpoint: median survival time, dose: 0.5 mg/kg/injection, schedule: Q01DX009 (ip), vehicle: Klucel (hydroxypropylcellulose) (HPC) 111 % of control

CC1=NCCN=C(C)CC(C)(C)[N-]CC[N-]C(C)(C)C1.[Cl-].[Cl-].[Co+3].[O-][Cl+3]([O-])([O-])O
inactive: endpoint: mean survival time, dose: 150.0 mg/kg/injection, schedule: Q04DX002 (ip), vehicle: Klucel (hydroxypropylcellulose) (HPC) 97 % of control | endpoint: mean survival time, dose: 300.0 mg/kg/injection, schedule: Q04DX002 (ip), vehicle: Klucel (hydroxypropylcellulose) (HPC) 94 % of control

CN=C(NC)c1ccc(NC(=O)c2ccc(C(=O)Nc3ccc(C(=NC)NC)c(OC)c3)c(Cl)c2)cc1OC
inactive: endpoint: mean survival time, dose: 1.26 mg/kg/injection, schedule: Q01DX Z (ip), vehicle: saline 98 % of control
